{
  "source": "PubChem BioAssay (NCI)",
  "experiment_in_all_cases": "NCI-60 cell line screen, 48 h",
  "key": {"UO-31 renal": {"test_system": "UO-31 renal"}, "OVCAR-8 ovarian": {"test_system": "OVCAR-8 ovarian"}, "U251 CNS": {"test_system": "U251 CNS"}, "T-47D breast": {"test_system": "T-47D breast"}, "DU-145 prostate": {"test_system": "DU-145 prostate"}, "HL-60(TB) leukemia": {"test_system": "HL-60(TB) leukemia"}, "SK-OV-3 ovarian": {"test_system": "SK-OV-3 ovarian"}, "SF-295 CNS": {"test_system": "SF-295 CNS"}, "ACHN renal": {"test_system": "ACHN renal"}, "LOX IMVI melanoma": {"test_system": "LOX IMVI melanoma"}, "UACC-62 melanoma": {"test_system": "UACC-62 melanoma"}, "MDA-MB-468 breast": {"test_system": "MDA-MB-468 breast"}, "SF-539 CNS": {"test_system": "SF-539 CNS"}, "SF-268 CNS": {"test_system": "SF-268 CNS"}, "CCRF-CEM leukemia": {"test_system": "CCRF-CEM leukemia"}, "SK-MEL-5 melanoma": {"test_system": "SK-MEL-5 melanoma"}, "HCT-15 colon": {"test_system": "HCT-15 colon"}, "TK-10 renal": {"test_system": "TK-10 renal"}, "EKVX NSCLC": {"test_system": "EKVX NSCLC"}, "MOLT-4 leukemia": {"test_system": "MOLT-4 leukemia"}, "IGROV1 ovarian": {"test_system": "IGROV1 ovarian"}, "NCI-H522 lung": {"test_system": "NCI-H522 lung"}, "MCF7 breast": {"test_system": "MCF7 breast"}, "SK-MEL-2 melanoma": {"test_system": "SK-MEL-2 melanoma"}, "KM12 colon": {"test_system": "KM12 colon"}, "NCI-H460 lung": {"test_system": "NCI-H460 lung"}, "SN12C renal": {"test_system": "SN12C renal"}, "SR leukemia": {"test_system": "SR leukemia"}, "SNB-19 CNS": {"test_system": "SNB-19 CNS"}},
  "note": "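Five compound concentrations were applied to cells in 96-well plates for 48 hours; endpoints were derived by simple linear interpolation of the resulting dose-response curve. GI50 is the concentration that inhibits growth by half. At the TGI there is no net growth.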",
  "data": [
    {"smiles": "COc1cccc2nc(Nc3ccc(F)c(NC(=O)c4ccc(CN5CCN(C)CC5)c(C(F)(F)F)c4)c3)ccc12", "values": [
      {"measurement": "GI50", "setting": "UO-31 renal", "value": 12.6, "unit": "µM"},
      {"measurement": "TGI", "setting": "UO-31 renal", "value": 25.5, "unit": "µM"},
      {"measurement": "GI50", "setting": "OVCAR-8 ovarian", "value": 15.8, "unit": "µM"},
      {"measurement": "TGI", "setting": "OVCAR-8 ovarian", "value": 29.8, "unit": "µM"},
      {"measurement": "GI50", "setting": "U251 CNS", "value": 13.4, "unit": "µM"},
      {"measurement": "TGI", "setting": "U251 CNS", "value": 26.1, "unit": "µM"},
      {"measurement": "GI50", "setting": "T-47D breast", "value": 14.8, "unit": "µM"},
      {"measurement": "TGI", "setting": "T-47D breast", "value": 31.4, "unit": "µM"},
      {"measurement": "GI50", "setting": "DU-145 prostate", "value": 12.9, "unit": "µM"},
      {"measurement": "TGI", "setting": "DU-145 prostate", "value": 25.6, "unit": "µM"},
      {"measurement": "GI50", "setting": "HL-60(TB) leukemia", "value": 6.52, "unit": "µM"},
      {"measurement": "TGI", "setting": "HL-60(TB) leukemia", "value": 25.4, "unit": "µM"},
      {"measurement": "GI50", "setting": "SK-OV-3 ovarian", "value": 15.7, "unit": "µM"},
      {"measurement": "TGI", "setting": "SK-OV-3 ovarian", "value": 29.8, "unit": "µM"},
      {"measurement": "GI50", "setting": "SF-295 CNS", "value": 17.1, "unit": "µM"},
      {"measurement": "TGI", "setting": "SF-295 CNS", "value": 32.2, "unit": "µM"},
      {"measurement": "GI50", "setting": "ACHN renal", "value": 16.5, "unit": "µM"},
      {"measurement": "TGI", "setting": "ACHN renal", "value": 34.9, "unit": "µM"},
      {"measurement": "GI50", "setting": "LOX IMVI melanoma", "value": 13.8, "unit": "µM"},
      {"measurement": "TGI", "setting": "LOX IMVI melanoma", "value": 27.3, "unit": "µM"},
      {"measurement": "GI50", "setting": "UACC-62 melanoma", "value": 16.2, "unit": "µM"},
      {"measurement": "TGI", "setting": "UACC-62 melanoma", "value": 30.9, "unit": "µM"},
      {"measurement": "GI50", "setting": "MDA-MB-468 breast", "value": 4.79, "unit": "µM"},
      {"measurement": "TGI", "setting": "MDA-MB-468 breast", "value": 18.1, "unit": "µM"},
      {"measurement": "GI50", "setting": "SF-539 CNS", "value": 12.4, "unit": "µM"},
      {"measurement": "TGI", "setting": "SF-539 CNS", "value": 25.5, "unit": "µM"},
      {"measurement": "GI50", "setting": "SF-268 CNS", "value": 11.1, "unit": "µM"},
      {"measurement": "TGI", "setting": "SF-268 CNS", "value": 27.1, "unit": "µM"},
      {"measurement": "GI50", "setting": "CCRF-CEM leukemia", "value": 9.71, "unit": "µM"},
      {"measurement": "TGI", "setting": "CCRF-CEM leukemia", "value": 25.6, "unit": "µM"},
      {"measurement": "GI50", "setting": "SK-MEL-5 melanoma", "value": 15.5, "unit": "µM"},
      {"measurement": "TGI", "setting": "SK-MEL-5 melanoma", "value": 28.9, "unit": "µM"},
      {"measurement": "GI50", "setting": "HCT-15 colon", "value": 13.4, "unit": "µM"},
      {"measurement": "TGI", "setting": "HCT-15 colon", "value": 28.4, "unit": "µM"},
      {"measurement": "GI50", "setting": "TK-10 renal", "value": 16.4, "unit": "µM"},
      {"measurement": "TGI", "setting": "TK-10 renal", "value": 30.2, "unit": "µM"},
      {"measurement": "GI50", "setting": "EKVX NSCLC", "value": 14.7, "unit": "µM"},
      {"measurement": "TGI", "setting": "EKVX NSCLC", "value": 29.1, "unit": "µM"},
      {"measurement": "GI50", "setting": "MOLT-4 leukemia", "value": 4.1, "unit": "µM"},
      {"measurement": "TGI", "setting": "MOLT-4 leukemia", "value": 18.4, "unit": "µM"},
      {"measurement": "GI50", "setting": "IGROV1 ovarian", "value": 14.5, "unit": "µM"},
      {"measurement": "TGI", "setting": "IGROV1 ovarian", "value": 29, "unit": "µM"},
      {"measurement": "GI50", "setting": "NCI-H522 lung", "value": 16, "unit": "µM"},
      {"measurement": "TGI", "setting": "NCI-H522 lung", "value": 30.2, "unit": "µM"},
      {"measurement": "GI50", "setting": "MCF7 breast", "value": 12.3, "unit": "µM"},
      {"measurement": "TGI", "setting": "MCF7 breast", "value": 27.5, "unit": "µM"},
      {"measurement": "GI50", "setting": "SK-MEL-2 melanoma", "value": 16.1, "unit": "µM"},
      {"measurement": "TGI", "setting": "SK-MEL-2 melanoma", "value": 29.9, "unit": "µM"},
      {"measurement": "GI50", "setting": "KM12 colon", "value": 15.4, "unit": "µM"},
      {"measurement": "TGI", "setting": "KM12 colon", "value": 29.6, "unit": "µM"},
      {"measurement": "GI50", "setting": "NCI-H460 lung", "value": 15.9, "unit": "µM"},
      {"measurement": "TGI", "setting": "NCI-H460 lung", "value": 33.5, "unit": "µM"},
      {"measurement": "GI50", "setting": "SN12C renal", "value": 13.4, "unit": "µM"},
      {"measurement": "TGI", "setting": "SN12C renal", "value": 27.4, "unit": "µM"},
      {"measurement": "GI50", "setting": "SR leukemia", "value": 9.84, "unit": "µM"},
      {"measurement": "TGI", "setting": "SR leukemia", "value": 28, "unit": "µM"},
      {"measurement": "GI50", "setting": "SNB-19 CNS", "value": 17.2, "unit": "µM"},
      {"measurement": "TGI", "setting": "SNB-19 CNS", "value": 32.8, "unit": "µM"}
    ]}
  ]
}
